Experimental data from PMC4669708 (Cell Death & Disease, 2015).

Columns and labels:
Assay in all cases: c-ponatinib pulldown LC-MS/MS
Type in all cases: binding
IRAK4 = target: T1, IRAK4 (Homo sapiens, UniProt Q9NWZ3)
T1 sequence (Q9NWZ3 1-460): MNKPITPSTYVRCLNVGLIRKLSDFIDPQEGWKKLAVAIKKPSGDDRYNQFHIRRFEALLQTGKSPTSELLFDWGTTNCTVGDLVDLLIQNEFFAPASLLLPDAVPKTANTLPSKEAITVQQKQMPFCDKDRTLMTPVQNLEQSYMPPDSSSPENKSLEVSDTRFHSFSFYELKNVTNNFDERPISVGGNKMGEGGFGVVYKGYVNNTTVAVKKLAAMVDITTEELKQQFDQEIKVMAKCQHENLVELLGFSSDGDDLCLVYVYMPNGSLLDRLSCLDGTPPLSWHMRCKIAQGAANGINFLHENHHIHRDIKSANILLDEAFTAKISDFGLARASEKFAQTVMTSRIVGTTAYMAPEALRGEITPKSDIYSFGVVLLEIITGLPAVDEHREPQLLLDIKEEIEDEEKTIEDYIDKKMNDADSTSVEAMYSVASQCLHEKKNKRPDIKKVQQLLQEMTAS
Method in brief: (§1)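 Read-out: interaction P-value combining Mascot scores, Phenyx scores and spectral counts (Fisher's method), plus fold reduction of median spectral counts on free-compound competition. Proteins were enriched from 10 mg cell lysate on c-ponatinib beads, then trypsin-digested for LC-MS/MS.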

MAPK11 = MAPK11 (Homo sapiens, UniProt Q15759)
Sequence of MAPK11 (Q15759 whole entry): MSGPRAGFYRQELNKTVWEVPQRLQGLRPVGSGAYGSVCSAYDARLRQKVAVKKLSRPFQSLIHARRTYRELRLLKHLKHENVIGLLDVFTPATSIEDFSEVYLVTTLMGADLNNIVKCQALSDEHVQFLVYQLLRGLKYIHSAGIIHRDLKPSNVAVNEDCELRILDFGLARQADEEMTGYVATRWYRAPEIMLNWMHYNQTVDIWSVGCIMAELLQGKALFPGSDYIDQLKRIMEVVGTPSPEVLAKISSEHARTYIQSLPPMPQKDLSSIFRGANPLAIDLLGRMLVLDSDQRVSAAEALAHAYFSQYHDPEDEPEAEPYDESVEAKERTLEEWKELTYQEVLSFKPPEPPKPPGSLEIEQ
Method in brief: as §1

TNIK = TNIK (Homo sapiens, UniProt Q9UKE5)
Sequence of TNIK (Q9UKE5 whole entry): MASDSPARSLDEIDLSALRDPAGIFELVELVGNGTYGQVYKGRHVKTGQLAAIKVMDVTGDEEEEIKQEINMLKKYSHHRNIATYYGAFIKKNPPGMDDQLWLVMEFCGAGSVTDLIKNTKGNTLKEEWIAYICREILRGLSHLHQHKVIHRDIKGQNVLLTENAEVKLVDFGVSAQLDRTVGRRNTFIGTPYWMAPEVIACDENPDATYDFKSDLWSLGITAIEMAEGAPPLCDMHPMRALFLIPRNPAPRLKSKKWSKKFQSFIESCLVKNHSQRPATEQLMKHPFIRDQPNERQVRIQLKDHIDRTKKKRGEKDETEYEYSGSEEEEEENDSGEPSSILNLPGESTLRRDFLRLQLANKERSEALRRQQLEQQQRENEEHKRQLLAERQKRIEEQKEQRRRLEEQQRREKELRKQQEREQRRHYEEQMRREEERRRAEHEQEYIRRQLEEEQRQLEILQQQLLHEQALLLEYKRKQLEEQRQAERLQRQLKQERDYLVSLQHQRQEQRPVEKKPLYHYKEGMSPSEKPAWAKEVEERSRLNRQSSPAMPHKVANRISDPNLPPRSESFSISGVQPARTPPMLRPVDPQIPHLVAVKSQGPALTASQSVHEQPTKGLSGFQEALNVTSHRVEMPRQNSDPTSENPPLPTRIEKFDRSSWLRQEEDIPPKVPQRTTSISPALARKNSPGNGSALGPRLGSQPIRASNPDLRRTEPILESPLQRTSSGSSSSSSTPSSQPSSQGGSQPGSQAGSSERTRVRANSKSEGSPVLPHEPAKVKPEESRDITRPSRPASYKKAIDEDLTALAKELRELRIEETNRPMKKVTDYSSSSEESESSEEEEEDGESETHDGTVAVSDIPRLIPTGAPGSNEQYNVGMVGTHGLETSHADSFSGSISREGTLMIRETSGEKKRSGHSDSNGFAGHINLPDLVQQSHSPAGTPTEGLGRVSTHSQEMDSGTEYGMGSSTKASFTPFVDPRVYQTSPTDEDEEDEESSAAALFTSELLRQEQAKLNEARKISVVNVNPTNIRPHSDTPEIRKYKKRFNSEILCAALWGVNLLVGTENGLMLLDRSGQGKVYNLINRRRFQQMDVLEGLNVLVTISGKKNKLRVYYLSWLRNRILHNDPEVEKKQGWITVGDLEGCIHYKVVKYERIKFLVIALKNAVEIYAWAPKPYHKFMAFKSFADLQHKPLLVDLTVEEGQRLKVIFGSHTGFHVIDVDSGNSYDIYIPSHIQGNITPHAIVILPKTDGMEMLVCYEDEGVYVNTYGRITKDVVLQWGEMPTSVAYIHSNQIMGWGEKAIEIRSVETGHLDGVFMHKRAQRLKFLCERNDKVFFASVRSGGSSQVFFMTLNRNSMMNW
Method in brief: as §1

TYK2 = TYK2 (Homo sapiens, UniProt P29597)
Sequence of TYK2 (P29597 whole entry): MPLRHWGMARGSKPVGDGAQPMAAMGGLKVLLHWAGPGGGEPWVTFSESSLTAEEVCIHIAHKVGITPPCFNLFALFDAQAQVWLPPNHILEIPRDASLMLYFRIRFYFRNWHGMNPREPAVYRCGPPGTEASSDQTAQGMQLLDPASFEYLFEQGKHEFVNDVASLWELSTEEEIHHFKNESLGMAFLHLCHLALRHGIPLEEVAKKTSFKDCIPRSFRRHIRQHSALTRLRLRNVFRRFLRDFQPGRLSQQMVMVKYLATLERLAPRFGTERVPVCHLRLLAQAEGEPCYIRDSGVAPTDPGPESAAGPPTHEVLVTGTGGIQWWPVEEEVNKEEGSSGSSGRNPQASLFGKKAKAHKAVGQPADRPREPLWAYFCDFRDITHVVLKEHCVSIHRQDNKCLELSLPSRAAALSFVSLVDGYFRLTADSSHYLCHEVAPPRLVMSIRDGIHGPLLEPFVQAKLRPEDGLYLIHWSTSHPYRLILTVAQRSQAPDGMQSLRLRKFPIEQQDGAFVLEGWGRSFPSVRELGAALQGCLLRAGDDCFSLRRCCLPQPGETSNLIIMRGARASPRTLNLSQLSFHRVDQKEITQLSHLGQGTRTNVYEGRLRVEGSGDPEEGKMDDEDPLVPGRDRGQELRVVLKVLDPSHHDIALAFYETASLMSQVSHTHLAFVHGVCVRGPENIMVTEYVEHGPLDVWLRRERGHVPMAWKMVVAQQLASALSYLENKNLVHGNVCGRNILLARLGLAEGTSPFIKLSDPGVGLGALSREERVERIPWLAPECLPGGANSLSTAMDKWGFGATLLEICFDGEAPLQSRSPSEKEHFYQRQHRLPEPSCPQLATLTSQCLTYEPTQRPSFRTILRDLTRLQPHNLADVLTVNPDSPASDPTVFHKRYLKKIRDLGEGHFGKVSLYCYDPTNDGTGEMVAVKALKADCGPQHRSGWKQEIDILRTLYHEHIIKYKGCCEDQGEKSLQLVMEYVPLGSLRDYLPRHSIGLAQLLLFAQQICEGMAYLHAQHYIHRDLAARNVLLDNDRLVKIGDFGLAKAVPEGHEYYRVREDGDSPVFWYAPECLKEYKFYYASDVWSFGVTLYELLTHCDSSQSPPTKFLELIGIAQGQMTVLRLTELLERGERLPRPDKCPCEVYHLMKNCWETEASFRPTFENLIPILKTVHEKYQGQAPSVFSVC
Method in brief: as §1

YWHAZ = target: T2, YWHAZ (Homo sapiens, UniProt P63104)
T2 sequence (P63104 1-245): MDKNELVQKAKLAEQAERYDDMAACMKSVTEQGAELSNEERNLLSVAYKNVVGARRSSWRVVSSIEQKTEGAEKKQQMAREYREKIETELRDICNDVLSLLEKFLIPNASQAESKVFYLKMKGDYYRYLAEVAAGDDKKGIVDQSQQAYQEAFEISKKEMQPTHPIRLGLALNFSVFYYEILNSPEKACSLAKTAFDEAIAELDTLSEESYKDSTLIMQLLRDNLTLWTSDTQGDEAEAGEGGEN
Method in brief: as §1

ZAK = ZAK (Homo sapiens, UniProt Q9NYL2)
Sequence of ZAK (Q9NYL2 whole entry): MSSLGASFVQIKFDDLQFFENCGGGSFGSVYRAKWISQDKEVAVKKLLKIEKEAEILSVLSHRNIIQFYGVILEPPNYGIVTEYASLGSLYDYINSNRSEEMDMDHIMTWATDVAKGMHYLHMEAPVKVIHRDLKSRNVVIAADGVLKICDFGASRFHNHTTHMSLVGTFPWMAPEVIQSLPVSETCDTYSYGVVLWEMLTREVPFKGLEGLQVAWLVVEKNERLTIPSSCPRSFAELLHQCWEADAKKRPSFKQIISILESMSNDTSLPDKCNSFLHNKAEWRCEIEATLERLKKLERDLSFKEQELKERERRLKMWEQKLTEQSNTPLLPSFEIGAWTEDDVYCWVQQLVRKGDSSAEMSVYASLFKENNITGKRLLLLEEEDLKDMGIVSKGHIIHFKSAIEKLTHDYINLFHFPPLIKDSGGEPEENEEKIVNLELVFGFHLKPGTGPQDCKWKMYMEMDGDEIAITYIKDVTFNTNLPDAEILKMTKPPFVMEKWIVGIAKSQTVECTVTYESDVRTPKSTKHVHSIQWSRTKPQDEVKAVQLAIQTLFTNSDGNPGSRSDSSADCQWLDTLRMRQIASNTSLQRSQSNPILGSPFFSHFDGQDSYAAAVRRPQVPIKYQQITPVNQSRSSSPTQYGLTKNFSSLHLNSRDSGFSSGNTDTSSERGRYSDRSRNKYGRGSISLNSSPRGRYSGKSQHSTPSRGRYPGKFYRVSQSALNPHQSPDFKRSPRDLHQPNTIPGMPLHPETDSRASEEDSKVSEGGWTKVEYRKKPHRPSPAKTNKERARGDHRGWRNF
Method in brief: as §1

Av. SC comp. (IRAK4; + free ponatinib): 2.5
Total SC comp. (IRAK4; + free ponatinib): 10
Av. SC (IRAK4; no competitor): 8.5
Total SC (IRAK4; no competitor): 34
Av. SC comp. (MAPK11; + free ponatinib): 0
Total SC comp. (MAPK11; + free ponatinib): 0
Av. SC (MAPK11; no competitor): 3
Total SC (MAPK11; no competitor): 12
Av. SC comp. (TNIK; + free ponatinib): 0
Total SC comp. (TNIK; + free ponatinib): 0
Av. SC (TNIK; no competitor): 26.75
Total SC (TNIK; no competitor): 107
Av. SC comp. (TYK2; + free ponatinib): 0
Total SC comp. (TYK2; + free ponatinib): 0
Av. SC (TYK2; no competitor): 14
Total SC (TYK2; no competitor): 56
Av. SC comp. (YWHAZ; + free ponatinib): 2.5
Total SC comp. (YWHAZ; + free ponatinib): 10
Av. SC (YWHAZ; no competitor): 10.5
Total SC (YWHAZ; no competitor): 42
Av. SC comp. (ZAK; + free ponatinib): 0
Total SC comp. (ZAK; + free ponatinib): 0
Av. SC (ZAK; no competitor): 65.25
Total SC (ZAK; no competitor): 261
SMILES: Cc1ccc(C(=O)Nc2ccc(CN3CCN(CCCN)CC3)c(C(F)(F)F)c2)cc1C#Cc1cnc2cccnn12 [c-ponatinib]
